Laboratory results as given in patent US11931465B2, “Functionalized Prussian blue nanoparticles, combination Prussian blue nanoparticle-based nano-immunotherapy and applications thereof” (Children's National Medical Center, priority 2016, dated 2024).
pIC50: −log10 of the molar value. Entries after “also recorded” stand apart in the source; their conditions may differ.

Tests used:
[1] = system: ERK activation (p-ERK); test: Western blot for p-ERK in M2 cells; assay type: cell-based, mouse
Experimental: Western blots. Treated M2 cells were lysed in 1×RIPA buffer [50 mM Tris-HCL (pH 7.4), 150 mM NaCl, 1% Triton X-100, 1% sodium deoxycholate, 0.1% SDS, 1 mM EDTA, complete protease inhibitor (Roche, Basel, Switzerland) and phosphatase inhibitor (Roche, Basel, Switzerland)]. Samples were analyzed by SDS-PAGE and transferred onto PVDF membranes (Millipore, Billerica, MA). The blots were then blocked in 5% non-fat milk in TBST, followed by incubation of primary antibodies at 4° C. overnight. After washing, the blots were incubated in horseradish peroxidase (HRP)-conjugated secondary antibodies at room temperature for 1 hour. Signals were detected using ECL or ECL plus (GE healthcare, Little Chalfont, United Kingdom) followed by film development. The primary antibodies used are as follows: p-ERK (1:1,000, rabbit, Cell Signaling, Danvers, MA), ERK (1:2,000, rabbit, Cell Signaling, Danvers, MA), and β-actin (1:10,000, mouse, Sigma-Aldrich, St. Louis, MO).

[2] = system: M2 mouse MPNST cells; test: CellTiter-Glo cell viability assay; assay type: cell-based; conditions: 48 h, 48 h treatment
Experimental: Cell viability assays. M2 cells were seeded at 50,000 cells per well in 96-well cell culture plates overnight. After treatment, the cells were analyzed for viability using the ATP-based CellTiter-Glo Luminescent Cell Viability Assay (Promega, Madison, WI).

[3] = system: M2 mouse MPNST cells; test: Flow cytometry for apoptosis/necrosis and cell cycle; assay type: cell-based; conditions: 0.1, 1 and 10 μM, 24 h
Experimental: Flow cytometry. After the relevant treatments, M2 cells were stained with PE-Annexin V (BD Pharmingen, Franklin Lakes, NJ) and 7AAD (BD Pharmingen, Franklin Lakes, NJ). For cell cycle analysis, M2 cells were stained with propidium iodide (ThermoFisher Scientific, Carlsbad, CA) after treatment. Flow cytometry was performed on a BD FACSCalibur and analyzed with the FlowJo 7.6 software.

[4] = system: M2 MPNST tumors; test: Syngeneic subcutaneous mouse model of MPNST; assay type: in vivo; conditions: PD901 5 mg/kg daily oral; PTT 50 μL 1 mg/mL PBNPs intratumoral, 1.5 W/cm^2 10 minutes, once
Experimental: In vivo studies. 1 million M2 cells were injected into the backs of B6129SF1/J mice in 100 μL 50% phosphate buffered saline (PBS, Life Technologies, Carlsbad, CA)/50% Matrigel (Corning, Corning, NY). Treatment commenced when tumors reached 10 mm in diameter. Animals were treated in four groups: (1) Untreated (n=5): animals received no treatment, (2) PTT-treated (n=5): animals were intratumorally injected with 50 μL of 1 mg/mL PBNPs and irradiated for 10 minutes with 1.5 W/cm^2 NIR laser, (3) PD901-treated (n=5): animals were given 5 mg/kg PD901 daily by oral gavage in 0.5% hydroxypropyl methylcellulose and 0.2% Tween80, and (4) PD901 plus PTT combo-treated (n=5): animals were given both PTT and PD901 treatments as listed above. […] Tumors were measured daily by calipers. For histological analysis of the effects of the treatments, tumors were harvested eight hours post treatment (treatments described above; n=2-3 per group), processed, and stained with hematoxylin and eosin (H&E) for subsequent microscopy.

With `O=C(NOC[C@H](O)CO)c1ccc(F)c(F)c1Nc1ccc(I)cc1F` [PD901, PD-0325901] the “p-ERK expression / ERK activation” value ([1]; 1 μM, 4 h or 8 h, versus vehicle) was “effectively blocked; also recorded: markedly decreased”, the p-ERK expression ([1]; 4 h, HIGH doses: 1.0 μM PD901, 0.05 mg/mL PBNP + 1.5 W/cm^2 laser 10 minutes) was “complete eradication” and the pIC50 [2] was ~6.00. The “mechanism of cell death” value [3] was “both apoptosis (Annexin V+7AAD−) and late apoptosis/necrosis (7AAD+)”, the cell cycle effect ([3]; concentration-dependent) was “significant arrest of M2 cells in the G0/G1 phase” and the median survival [4] was 18 days.
